Source: PubChem BioAssay (NCI)
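Cultured in 96-well plates, cells were exposed to test compound for 48 hours across five concentrations. GI50: concentration for 50% inhibition of growth. TGI: concentration producing complete growth inhibition.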

Key:
Assay in all cases: NCI-60 cell line screen, 48 h
PC-3 prostate = system: PC-3 prostate
OVCAR-3 ovarian = system: OVCAR-3 ovarian
TK-10 renal = system: TK-10 renal
NCI/ADR-RES ovarian = system: NCI/ADR-RES ovarian
OVCAR-8 ovarian = system: OVCAR-8 ovarian
RPMI-8226 leukemia = system: RPMI-8226 leukemia
MALME-3M melanoma = system: MALME-3M melanoma
SNB-78 CNS = system: SNB-78 CNS
KM20L2 colon = system: KM20L2 colon

SMILES	GI50 (PC-3 prostate) [µM]	TGI (PC-3 prostate) [µM]	GI50 (OVCAR-3 ovarian) [µM]	TGI (OVCAR-3 ovarian) [µM]	GI50 (TK-10 renal) [µM]	TGI (TK-10 renal) [µM]	GI50 (NCI/ADR-RES ovarian) [µM]	TGI (NCI/ADR-RES ovarian) [µM]	GI50 (OVCAR-8 ovarian) [µM]	TGI (OVCAR-8 ovarian) [µM]	GI50 (RPMI-8226 leukemia) [µM]	TGI (RPMI-8226 leukemia) [µM]	GI50 (MALME-3M melanoma) [µM]	TGI (MALME-3M melanoma) [µM]	TGI (SNB-78 CNS) [µM]	TGI (KM20L2 colon) [µM]
COC(=O)C12C3C4C1C1C2C3C41NC(=O)c1csc([C@@H](C[C@H](C(C)C)N(C)C(=O)[C@@H](NC(=O)[C@H]2CCCCN2C)C2CC2)OC(C)=O)n1 (some centres not stated)	0.0482	> 33.3	0.0117	0.86	4.39	> 33.3	2.7	> 33.3	0.0404	> 33.3	0.00696	> 33.3	0.0581	> 33.3	–	–
CCOC(=O)CCn1[nH]c(=O)c(Cl)c(Cl)c1=O	–	–	–	> 100	–	> 100	–	–	–	> 100	–	–	–	> 100	> 100	> 100
COc1cc2c3c(n(CCNCCCNCCn4c5c(c6cc(OC)c(OC)cc6c4=O)C(=O)c4ccccc4-5)c(=O)c2cc1OC)-c1ccccc1C3=O	0.0865	2.09	0.149	1.17	2.9	21.7	> 100	> 100	0.0355	5.82	< 0.018	0.614	0.884	6.19	–	–
CCc1ccc(Nc2ccc([N+](=O)[O-])cc2[N+](=O)[O-])cc1	–	–	–	> 100	–	> 100	–	–	–	> 100	–	> 100	–	> 100	> 100	> 100
COc1cc2c3c(n(C)c(=O)c2cc1OC)-c1cc2c(cc1/C3=C\CNCCCN)OCO2	0.272	3.16	1.37	7.66	0.981	7.47	5.26	> 88.5	0.13	1.05	0.414	2.15	0.144	0.591	–	–
Nc1ncn(C2CC(O)C(CO)O2)c(=O)n1 (configuration not stated)	–	> 204	–	162	–	> 375	–	> 375	–	370	–	> 375	–	> 375	> 375	> 375
COc1ccc(CNc2nc3cc(C(F)(F)F)ccc3nc2C)cc1OC	–	–	–	> 100	–	87.8	–	–	–	> 100	–	97	–	44.1	55.8	> 100
COc1ccc2c3c(coc13)C(CCC(=O)O)CC2 (configuration not stated)	–	–	–	> 100	–	> 100	–	–	–	> 100	–	–	–	–	> 100	> 100
C=C[C@H]1C[C@@H]2C[C@@H]3[C@H]4C/C=C\C(=O)NCCCC5NC(=O)C(=C(O)/C=C/[C@@H]4CC(=O)[C@H]3[C@@H]2[C@H]1C)C5=O (some centres not stated)	1.36	2.76	0.183	0.334	0.192	0.419	0.192	0.365	0.193	0.38	1.5	3.68	0.225	0.56	–	–
COc1cc2c(c(OC)c1)C1(CC(CC#N)C2)SCCS1 (configuration not stated)	–	–	–	> 100	–	> 100	–	–	–	> 100	–	> 100	–	> 100	> 100	> 100
CS(=O)(=O)c1cc(=O)c2ccccc2s1	–	33.4	–	5.27	–	13.7	–	38.8	–	6.22	–	–	–	3.5	14	28.2
COC1=CC2(C=CC1=O)c1cc(OC)c(OC)cc1CCN2C(=O)c1ccccc1 (configuration not stated)	–	–	–	> 100	–	> 100	–	–	–	> 100	–	> 100	–	> 100	> 100	–
O=C(/C=C/c1c(O)ccc2ccccc12)c1ccccc1	–	–	–	> 100	–	> 100	–	–	–	> 100	–	80.6	–	> 100	> 100	> 100
COC(C(O)c1ccc2c(c1)OCO2)P(=O)(c1ccccc1)c1ccccc1 (configuration not stated)	–	–	–	40.3	–	> 100	–	–	–	> 100	–	–	–	> 100	> 100	–
C/C=C(\C)CC/C=C/CO[Si](C)(C)C(C)(C)C	–	> 100	–	> 100	–	> 100	–	> 100	–	> 100	–	> 100	–	> 100	–	–
COC(=O)[C@H](Cc1c[nH]c2ccccc12)NC(=O)[C@@H](OC)[C@@H]1Cc2cc3cc(OC4CC(OC5CC(O)C(O)C(C)O5)C(O)C(C)O4)c(C)c(O)c3c(O)c2C(=O)[C@H]1OC1CC(OC2CC(OC3CC(C)(O)C(O)C(C)O3)C(O)C(C)O2)C(O)C(C)O1 (some centres not stated)	0.0088	0.412	0.00701	0.112	0.0651	> 6.46	> 11.7	> 16.5	0.0097	> 16.5	0.00557	0.0607	0.0039	0.0184	–	–
Cc1ccc(-c2cc(=O)c3cc(C)c(C)c(C(=O)O)c3o2)cc1C	–	–	–	> 100	–	> 100	–	–	–	> 100	–	> 100	–	> 100	> 100	> 100
c1cc2c(ncc3cscc32)s1	–	> 100	–	> 100	–	> 100	–	> 100	–	> 100	–	> 100	–	> 100	> 100	–
CCOC(=O)c1c(C)nc2c(c1N)/C(=C/c1ccc(OC)cc1)C(=O)N2Cc1ccc(F)cc1	0.277	1	0.109	0.51	0.264	1	0.299	–	0.257	1.06	0.224	0.653	0.185	0.44	–	–
Fc1ccc(C2SCc3nc4ccccc4n32)cc1Cl (configuration not stated)	–	–	–	–	–	67.1	–	–	–	48.1	–	–	–	31	> 100	> 100
